Results as given in patent publication US10334850B2, “Recombinant microorganism expressing avermectin analogue and use thereof” (Zhejiang Hisun Pharmaceutical Co., Ltd., priority 2014, dated 2019).

Tested on: pine wood nematodes
Test: Toxicity assay against pine wood nematodes (immersion method)
Type: in vivo
Details: 24 h
Experimental: 3. Activity assay of tenvermectins against pine wood nematodes: The indoor activities of sixteen-membered macrolide compounds such as tenvermectins, avermectins, ivermectin, milbemycins, emamectin benzoate were assayed, wherein pine wood nematodes were used as the test insects. The aim was to compare the difference in activities of such medicaments on pine wood nematodes.
Test medicaments: five kinds of medicaments, i.e. 0.5% avermectins emulsifiable concentrate, 0.5% tenvermectins emulsifiable concentrate, 0.5% ivermectin emulsifiable concentrate, 2% milbemycins emulsifiable concentrate, 2.5% emamectin benzoate microemulsion.
Test Method: The immersion method was adopted. Five mass concentrations 2, 5, 10, 20, 50 mg/L were set for each of the medicaments, and each concentration was repeated for three times. The experimental results were subjected to statistics after 24 h (see Table 5).

Substance: ivermectin
- Mortality at different concentrations (mg/L, %) (2 mg/L): 18.52%
- Mortality at different concentrations (mg/L, %) (5 mg/L): 42.55%
- Mortality at different concentrations (mg/L, %) (10 mg/L): 57.47%
- Mortality at different concentrations (mg/L, %) (20 mg/L): 58.33%
- Mortality at different concentrations (mg/L, %) (50 mg/L): 78.94%

Substance: emamectin benzoate
- Mortality at different concentrations (mg/L, %) (2 mg/L): 48.27%
- Mortality at different concentrations (mg/L, %) (5 mg/L): 61.68%
- Mortality at different concentrations (mg/L, %) (10 mg/L): 67.44%
- Mortality at different concentrations (mg/L, %) (20 mg/L): 75%
- Mortality at different concentrations (mg/L, %) (50 mg/L): 86.67%
